Key:
Experiment in all cases: combination Emax (second highest fraction inhibited in the dose matrix, 72 h); higher = more inhibition; extreme values may be limits of the assay
[1] = test system: Ramos-2G6-4C10 (Burkitt's Lymphoma)
How it was run: (§1)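 Bliss excess equals the observed combination effect minus the expected value EA + EB − EA·EB, where EA and EB are the effects of each agent alone. Combination Emax is the second-highest inhibition within the matrix. Inhibition was scaled from CellTiter-Glo 2.0 luminescence, with 0 set by vehicle wells and 1 by blank wells, after 72 hours of two-drug dosing of cells plated in 1536-well plates.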

[2] = test system: DEL (T-Cell Non-Hodgkin's Lymphoma)
How it was run: as §1

[3] = test system: MFE-296 (Endometrial Carcinoma)
How it was run: as §1

[4] = test system: TE-15 (Esophageal Squamous Cell Carcinoma)
How it was run: as §1

[5] = test system: NB10 (Neuroblastoma)
How it was run: as §1

[6] = test system: AGS (Gastric Carcinoma)
How it was run: as §1

[7] = test system: HOS (Osteosarcoma)
How it was run: as §1

[8] = test system: SNU-5 (Gastric Carcinoma)
How it was run: as §1

[9] = test system: T98G (Glioblastoma)
How it was run: as §1

[10] = test system: KYSE-520 (Esophageal Squamous Cell Carcinoma)
How it was run: as §1

[11] = test system: TCCSUP (Bladder Carcinoma)
How it was run: as §1

[12] = test system: LU-135 (Small Cell Lung Carcinoma)
How it was run: as §1

[13] = test system: OVCA420 (Ovarian Carcinoma)
How it was run: as §1

[14] = test system: MDA-MB-361 (Breast Carcinoma)
How it was run: as §1

[15] = test system: TE-9 (Esophageal Squamous Cell Carcinoma)
How it was run: as §1

[16] = test system: RO82-W-1 (Thyroid Gland Carcinoma)
How it was run: as §1

[17] = test system: HO-1-N-1 (Oral Cavity Carcinoma)
How it was run: as §1

[18] = test system: NOS-1 (Osteosarcoma)
How it was run: as §1

[19] = test system: 42-MG-BA (Glioblastoma)
How it was run: as §1

[20] = test system: KURAMOCHI (Ovarian Carcinoma)
How it was run: as §1

CN(CCO)CC[C@H](CSc1ccccc1)Nc1ccc(S(=O)(=O)NC(=O)c2ccc(N3CCC([C@@H](O)c4ccccc4-c4ccc(Cl)cc4)CC3)cc2)cc1S(=O)(=O)C(F)(F)F [AZD4320] + CCN(CCO)CCCOc1ccc2c(Nc3cc(CC(=O)Nc4cccc(F)c4)[nH]n3)ncnc2c1 [AZD2811] (first compound max 1 µM, 7x7, partner max 1 µM)
combination Emax [1]: 0.909 | combination Emax [2]: 0.804 | combination Emax [3]: 0.11 | combination Emax [4]: 0.141 | combination Emax [5]: 0.408 | combination Emax [6]: 0.979 | combination Emax [7]: 0.12 | combination Emax [8]: 0.45 | combination Emax [9]: 0.554 | combination Emax [10]: 0.292 | combination Emax [11]: 0.543 | combination Emax [12]: 1 | combination Emax [13]: 0.174 | combination Emax [14]: 0.679 | combination Emax [15]: 0.451 | combination Emax [16]: 0.46 | combination Emax [17]: 0.886 | combination Emax [18]: 0.667 | combination Emax [19]: 0.831 | combination Emax [20]: 0.327

CN(CCO)CC[C@H](CSc1ccccc1)Nc1ccc(S(=O)(=O)NC(=O)c2ccc(N3CCC([C@@H](O)c4ccccc4-c4ccc(Cl)cc4)CC3)cc2)cc1S(=O)(=O)C(F)(F)F [AZD4320] + CN(C)CCCOc1ccc(-c2ccc3ncc4c(c3c2)n(C2CCOCC2)c(=O)n4C)cn1 [AZD0156] (first compound max 1 µM, 7x7, partner max 1 µM)
combination Emax [1]: 0.345 | combination Emax [2]: 0.357 | combination Emax [3]: 0.0842 | combination Emax [4]: 0.0786 | combination Emax [5]: 0.215 | combination Emax [6]: 0.237 | combination Emax [7]: 0.0916 | combination Emax [8]: 0.245 | combination Emax [9]: 0.126 | combination Emax [10]: 0.157 | combination Emax [11]: 0.127 | combination Emax [12]: 1 | combination Emax [13]: 0.174 | combination Emax [14]: 0.205 | combination Emax [15]: 0.263 | combination Emax [16]: 0.469 | combination Emax [17]: 0.156 | combination Emax [18]: 0.611 | combination Emax [19]: 0.274 | combination Emax [20]: 0.189

CN(CCO)CC[C@H](CSc1ccccc1)Nc1ccc(S(=O)(=O)NC(=O)c2ccc(N3CCC([C@@H](O)c4ccccc4-c4ccc(Cl)cc4)CC3)cc2)cc1S(=O)(=O)C(F)(F)F [AZD4320] + C[C@@H]1COCCN1C2=NC(=NC(=C2)C3(CC3)[S@](=N)(=O)C)C4=C5C=CNC5=NC=C4 [AZD6738] (first compound max 1 µM, 7x7, partner max 10 µM)
combination Emax [1]: 0.946 | combination Emax [2]: 1 | combination Emax [3]: 0.559 | combination Emax [4]: 0.908 | combination Emax [5]: 0.689 | combination Emax [6]: 0.993 | combination Emax [7]: 0.722 | combination Emax [8]: 0.978 | combination Emax [9]: 0.954 | combination Emax [10]: 0.672 | combination Emax [11]: 0.865 | combination Emax [12]: 1 | combination Emax [13]: 0.516 | combination Emax [14]: 0.918 | combination Emax [15]: 0.372 | combination Emax [16]: 0.785 | combination Emax [17]: 0.937 | combination Emax [18]: 0.914 | combination Emax [19]: 0.675 | combination Emax [20]: 0.687

CN(CCO)CC[C@H](CSc1ccccc1)Nc1ccc(S(=O)(=O)NC(=O)c2ccc(N3CCC([C@@H](O)c4ccccc4-c4ccc(Cl)cc4)CC3)cc2)cc1S(=O)(=O)C(F)(F)F [AZD4320] + C[C@@H](Nc1cc(F)cc(F)c1)c1cc(C(=O)N(C)C)cc2c(=O)cc(N3CCOCC3)oc12 [AZD8186] (first compound max 1 µM, 7x7, partner max 3 µM)
combination Emax [1]: 0.685 | combination Emax [2]: 0.888 | combination Emax [3]: 0.306 | combination Emax [4]: 0.551 | combination Emax [5]: 0.78 | combination Emax [6]: 0.974 | combination Emax [7]: 0.37 | combination Emax [8]: 0.703 | combination Emax [9]: 0.482 | combination Emax [10]: 0.34 | combination Emax [11]: 0.417 | combination Emax [12]: 1 | combination Emax [13]: 0.261 | combination Emax [14]: 0.672 | combination Emax [15]: 0.312 | combination Emax [16]: 0.521 | combination Emax [17]: 0.735 | combination Emax [18]: 0.748 | combination Emax [19]: 0.757 | combination Emax [20]: 0.548

CN(CCO)CC[C@H](CSc1ccccc1)Nc1ccc(S(=O)(=O)NC(=O)c2ccc(N3CCC([C@@H](O)c4ccccc4-c4ccc(Cl)cc4)CC3)cc2)cc1S(=O)(=O)C(F)(F)F [AZD4320] + Cc1cc2ncnn2cc1Nc1ncc2c(n1)n(C1CCOCC1)c(=O)n2C [AZD7648] (first compound max 1 µM, 7x7, partner max 10 µM)
combination Emax [1]: 0.718 | combination Emax [2]: 0.315 | combination Emax [3]: 0.124 | combination Emax [4]: 0.0708 | combination Emax [5]: 0.172 | combination Emax [6]: 0.318 | combination Emax [7]: 0.134 | combination Emax [8]: 0.45 | combination Emax [9]: 0.255 | combination Emax [10]: 0.23 | combination Emax [11]: 0.268 | combination Emax [12]: 1 | combination Emax [13]: 0.157 | combination Emax [14]: 0.459 | combination Emax [15]: 0.246 | combination Emax [16]: 0.395 | combination Emax [17]: 0.226 | combination Emax [18]: 0.753 | combination Emax [19]: 0.312 | combination Emax [20]: 0.161

CN(CCO)CC[C@H](CSc1ccccc1)Nc1ccc(S(=O)(=O)NC(=O)c2ccc(N3CCC([C@@H](O)c4ccccc4-c4ccc(Cl)cc4)CC3)cc2)cc1S(=O)(=O)C(F)(F)F [AZD4320] + Cn1cnc2c(F)c(Nc3ccc(Br)cc3Cl)c(C(=O)NOCCO)cc21 [Selumetinib] (first compound max 1 µM, 7x7, partner max 3 µM)
combination Emax [1]: 0.472 | combination Emax [2]: 0.858 | combination Emax [3]: 0.396 | combination Emax [4]: 0.43 | combination Emax [5]: 0.887 | combination Emax [6]: 1 | combination Emax [7]: 0.368 | combination Emax [8]: 0.759 | combination Emax [9]: 0.277 | combination Emax [10]: 0.401 | combination Emax [11]: 0.405 | combination Emax [12]: 1 | combination Emax [13]: 0.451 | combination Emax [14]: 0.334 | combination Emax [15]: 0.438 | combination Emax [16]: 0.538 | combination Emax [17]: 0.619 | combination Emax [18]: 0.69 | combination Emax [19]: 0.694 | combination Emax [20]: 0.584

— the supplement of paper PMC11061612
